Experimental data published in PubChem BioAssay (NCI).
“And” between values parts separate entries of the source, which are not always exact repeats. Equal entries are not always repeated.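 Protocol summary: plate cells (96-well), add compound at 5 concentrations, incubate 48 h, interpolate endpoints linearly. GI50: concentration for 50% inhibition of growth. Definition used: TGI = concentration required for complete inhibition of growth.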

Legend:
Assay in all cases: DTP human tumour cell line panel, 48 h
HT29 colon = system: HT29 colon
HOP-92 NSCLC = system: HOP-92 NSCLC
OVCAR-4 ovarian = system: OVCAR-4 ovarian
OVCAR-8 ovarian = system: OVCAR-8 ovarian
SN12C renal = system: SN12C renal
M14 melanoma = system: M14 melanoma
MALME-3M melanoma = system: MALME-3M melanoma
T-47D breast = system: T-47D breast
A549 NSCLC = system: A549 NSCLC
OVCAR-5 ovarian = system: OVCAR-5 ovarian

Compound	TGI (HT29 colon) [µM]	TGI (HOP-92 NSCLC)	TGI (OVCAR-4 ovarian)	TGI (OVCAR-8 ovarian) [µM]	TGI (SN12C renal)	TGI (M14 melanoma) [µM]	TGI (MALME-3M melanoma)	TGI (T-47D breast) [µM]	TGI (A549 NSCLC) [µM]	TGI (OVCAR-5 ovarian)	GI50 (HT29 colon) [µM]	GI50 (HOP-92 NSCLC)	GI50 (OVCAR-4 ovarian)	GI50 (M14 melanoma) [µM]	GI50 (OVCAR-5 ovarian)	GI50 (OVCAR-8 ovarian) [µM]	GI50 (SN12C renal) [µM]	GI50 (MALME-3M melanoma) [µM]	GI50 (T-47D breast) [µM]	GI50 (A549 NSCLC) [µM]
O=C(O)c1cc2ccccc2c(O)c1O	49.3	> 54.9 µM	35 µM	27.4	31.5 µM	16.3	3.78 µM	57.7	38.5	32.1 µM										
Cc1c(N=Nc2ccc([N+](=O)[O-])cc2)nc2scc(-c3ccccc3)n12	> 100	> 100 µM	> 100 µM	> 100	> 100 µM	> 100	> 100 µM	> 100	> 100	> 100 µM										
O=C(/C=C/c1ccc(OCC(=O)N2CCN(c3ccccc3)CC2)cc1)c1ccc(Cl)cc1	> 100	47.8 µM	> 97.7 µM	> 100	> 100 µM	> 100	> 100 µM	> 100	> 100	> 100 µM										
COc1c(O)c2c(c3cc(C(=O)N4CCc5c4c(O)c(OC)c4[nH]c(C(=O)N6CC7CC78C6=CC(=O)c6[nH]cc(C)c68)cc54)[nH]c13)CCN2C(N)=O (stereo not given)		28.8 nM and 0.0401 µg/mL	2.91 µM and 0.0729 µg/mL	0.00265	5.75 nM and 3.41 µM and 0.103 µg/mL		5.23 nM and 1.02 µM and 0.00419 µg/mL	40		0.0519 µg/mL	0.00254	0.0081 µg/mL	420 nM and 0.0198 µg/mL	0.172	0.0152 µg/mL					
CCCC[C@H]1C(=O)O[C@H](C)[C@H](NC(=O)c2cccc(NC=O)c2O)C(=O)O[C@@H](C)[C@@H]1OC(=O)CC(C)C	27.4	29.9 µM	63.4 µM	40.5	40.7 µM	47.7	50.9 µM	44.8	29.5	39 µM										
N#Cc1c(C(=O)c2ccccc2)cnn1-c1ccccc1	> 25	> 25 µM	> 25 µM	> 25	> 25 µM	> 25	> 25 µM	> 25	> 25	> 25 µM	> 25	> 25 µM	> 25 µM	> 25	> 25 µM	> 25	> 25	> 25	> 25	> 25
C(=N\Nc1ccccn1)/c1ccccn1	> 100	> 82.7 µM		> 100	> 100 µM	57.2	2.69 µM	> 100	> 100	> 100 µM	0.563		0.26 µM	0.313	0.588 µM	0.411	0.443	0.293	0.332	0.501
Cc1cn(C2CC(F)C(CO)O2)c(=O)[nH]c1=O (stereo not given)	> 100	> 100 µM	> 100 µM	> 100	> 100 µM	> 100	> 100 µM	> 100	> 100	> 100 µM	98.8	> 100 µM	> 100 µM	> 100	> 100 µM	> 100	> 100	> 100	> 100	> 100
C=C1[C@@H](C)[C@H]2[C@H](Cc3ccccc3)NC(=O)[C@]23OC(=O)/C=C/[C@H](O)CCC[C@@H](C)C/C=C/[C@H]3[C@@H]1O	> 100	4.23 µM	> 100 µM	66.4	> 100 µM	> 100	> 89 µM	> 100	> 97	> 100 µM										
COc1ccccc1-[n+]1cc(-c2ccc(-c3ccccc3)cc2)n2c1CCCCC2	10.2	1.97 µM	12.5 µM	15.9	10.5 µM	10.1	0.869 µM	11.9	16.7	16.6 µM	0.281	0.184 µM	0.116 µM	0.443	0.668 µM	0.528	0.288	0.158	0.0774	0.51
O=C1CCC(Cc2ccc(Cl)cc2Cl)C(=O)N1 (stereo not given)	> 100	> 100 µM	> 100 µM	> 100	> 100 µM	> 100	> 100 µM	> 100	> 100	> 100 µM										
NC(=O)c1cnc(N[C@@H]2CCCC[C@@H]2N)nc1Nc1cccc(-n2nccn2)c1	11.5	8.72 µM	19.6 µM	20	17.6 µM	6.14	10.4 µM	22.1	14.3	15.3 µM	2.82	2.7 µM	7.01 µM	2.11	3.65 µM	6.6	4.13	3.06	6.44	3.58
C/C(=N/S(=O)(=O)c1ccc(Cl)c(Cl)c1)OCC(C)(C)C	> 100	> 100 µM	> 100 µM	> 100	> 100 µM	> 100	> 100 µM	> 100	> 100	> 100 µM										
O=Cc1c(-c2cc(O)ccc2O)nc2sccn12	> 100	27.3 µM	32.9 µM	> 100	34.5 µM	30.1	25 µM	> 100	> 100	74.4 µM	35.1	10.7 µM	14.5 µM	13.8	23.1 µM	21.4	12.8	10.9	12.3	25.7
CC1=C(/C=C/C(C)=C\C=C\C(C)=C\C(=O)Nc2ccc3c(c2)OCO3)C(C)(C)CCC1	> 100	> 100 µM	> 100 µM	> 100	> 100 µM	> 100	> 100 µM	> 100	> 100	> 100 µM	11.9	35.8 µM	21 µM	> 100	> 100 µM	93.1	> 100	7.93	25.4	84.8
CC12CCC3C(CC=C4CC(O)CCC43C)C1C/C(=C\N1CCCC1)C2=O (stereo not given)	> 100	83.7 µM	> 100 µM	> 100	> 100 µM	> 100	> 100 µM	> 100	> 100	> 100 µM	> 100	4.52 µM	61 µM	> 100	> 100 µM	> 100	85	71.5	30.2	> 100
O=C(/C=C/c1cccnc1)NCCCCC1CCN(C(=O)c2ccccc2)CC1	> 100	> 100 µM	> 100 µM	> 100	> 100 µM	> 100	> 100 µM	> 90.3	> 100	> 100 µM	< 0.01	26.8 µM and > 32 µM	> 66 µM and 26.2 µM	< 0.01	27.7 µM	< 0.01	< 0.01	> 86.5	1.93	0.166
CC(=O)OC[C@H]1O[C@@H](n2ccc(=O)[nH]c2=O)[C@H](OC(C)=O)[C@@H]1OC(C)=O	> 100	> 100 µM	> 100 µM	> 100	> 100 µM	> 100	> 100 µM	> 100	> 100	> 100 µM	> 100	> 100 µM	> 100 µM	> 100	> 100 µM	> 100	> 100	> 100	> 100	> 100
CN(C)CCCn1c2c(c3cnccc3c1=O)C(=O)c1ccccc1-2	11.3	2.68 µM	8.89 µM	44.1	4.35 µM	2.41	1.05 µM	6.99	3.86	9.04 µM	0.242	0.203 µM	0.601 µM	0.391	0.558 µM	0.313	0.289	0.287	0.509	0.676
CCN(Cc1cccc(OC)c1)c1ccc(CO)c(Cl)c1	17.3	20.5 µM	14.3 µM	45.7	32.1 µM	41	40.9 µM	1.83	27.7	0.606 µM	2.13	2.11 µM	0.291 µM	16.2	0.157 µM	12.6	12.9	17.5	0.165	2.06
CSc1nc2c(c(=O)[nH]1)N=C1c3ccccc3C(=O)C1C(c1ccc(F)cc1)N2 (stereo not given)	12.3	48.8 µM	67 µM	35.4	> 100 µM	> 100	> 100 µM	94.6	> 100	41.1 µM	3.36	9.52 µM	15.4 µM	6.29	17.7 µM	13.1	28.4	19.6	14.2	12.6
CC(C)(C)N1CCC1C(N)=O (stereo not given)	> 100	> 100 µM	> 100 µM	> 100	> 100 µM	> 100	> 100 µM	> 100	> 100	> 100 µM	> 100	> 100 µM	> 100 µM	> 100	> 100 µM	> 100	> 100	> 100	> 100	> 100
O=c1c2ccccc2c2ccccc2c(=O)n1-c1cc2c3ccccc3ccc2c2ccccc12	> 100	> 100 µM	> 100 µM	> 100	> 100 µM	> 100	> 100 µM	> 100	> 100	> 100 µM										
C1CC[N-]CC1.C1CC[N-]CC1.C1CC[N-]CC1.C1CC[N-]CC1.[Cl][Rh][Cl]	45.8	22.1 µM	> 100 µM	> 100	> 100 µM	> 100	43.4 µM	> 100	> 100	49.8 µM	7.6	4.39 µM	5.43 µM	6.26	6.83 µM	4.07	1.4	6.64	3.87	3.12
N[C@@H](Cc1c[nH]c2ccccc12)C(=O)NC1CCN(C(=O)c2c[nH]c3ccccc23)CC1	> 100	> 100 µM	> 100 µM	> 100	> 100 µM	> 100	> 100 µM	> 100	> 100	> 100 µM	> 100	71 µM	69.2 µM	> 100	> 100 µM	> 100	> 100	77.5	74.5	> 100
COc1ccc(-n2c(SCc3cc(OC)c(OC)c(OC)c3)nc3ccc(C)cc3c2=O)c(OC)c1	> 100	> 100 µM	> 100 µM	> 100	> 100 µM	8.55	> 100 µM	> 100	> 100	> 100 µM	4.04	2.58 µM	4.65 µM	2.7	7.93 µM	5.14	5.1	2.97	6.39	4.18
Cc1ccc(C(=O)Nc2ccc(CN3CCN(C)CC3)c(C(F)(F)F)c2)cc1C#Cc1cnc(N)cc1C#N	0.729	0.566 µM	1.42 µM	1.15	0.733 µM	0.511	0.187 µM	8.71	0.958	1.42 µM	0.051	0.0496 µM	0.0998 µM	0.021	0.309 µM	0.224	0.0918	0.0276	0.605	0.233
